Measured values reported in patent publication US20250090538A1, “TLR7/8-ANTAGONIST FOR TREATING SJÖGREN'S SYNDROME OR MIXED CONNECTIVE TISSUE DISEASE” (Novartis AG, priority 2022, published 2025).
“Also recorded” adds a separate entry of the source.

Assays:
TLR7 and TLR8 = assay: Selectivity for TLR7 and TLR8 over other TLRs and the IL-1 receptor on human PBMCs; format: cell-based
TLR7 = target: T1, TLR7 (Homo sapiens, UniProt Q9NYK1); assay: Ex-vivo stimulation of whole blood from SAD and MAD cohorts with a TLR7/8 agonist, B cell activation (CD69); format: cell-based
T1 construct: endogenous in cells; host or cells: B cells in whole blood of healthy human subjects (SAD and MAD cohorts)
T1 sequence (Q9NYK1 27-1049): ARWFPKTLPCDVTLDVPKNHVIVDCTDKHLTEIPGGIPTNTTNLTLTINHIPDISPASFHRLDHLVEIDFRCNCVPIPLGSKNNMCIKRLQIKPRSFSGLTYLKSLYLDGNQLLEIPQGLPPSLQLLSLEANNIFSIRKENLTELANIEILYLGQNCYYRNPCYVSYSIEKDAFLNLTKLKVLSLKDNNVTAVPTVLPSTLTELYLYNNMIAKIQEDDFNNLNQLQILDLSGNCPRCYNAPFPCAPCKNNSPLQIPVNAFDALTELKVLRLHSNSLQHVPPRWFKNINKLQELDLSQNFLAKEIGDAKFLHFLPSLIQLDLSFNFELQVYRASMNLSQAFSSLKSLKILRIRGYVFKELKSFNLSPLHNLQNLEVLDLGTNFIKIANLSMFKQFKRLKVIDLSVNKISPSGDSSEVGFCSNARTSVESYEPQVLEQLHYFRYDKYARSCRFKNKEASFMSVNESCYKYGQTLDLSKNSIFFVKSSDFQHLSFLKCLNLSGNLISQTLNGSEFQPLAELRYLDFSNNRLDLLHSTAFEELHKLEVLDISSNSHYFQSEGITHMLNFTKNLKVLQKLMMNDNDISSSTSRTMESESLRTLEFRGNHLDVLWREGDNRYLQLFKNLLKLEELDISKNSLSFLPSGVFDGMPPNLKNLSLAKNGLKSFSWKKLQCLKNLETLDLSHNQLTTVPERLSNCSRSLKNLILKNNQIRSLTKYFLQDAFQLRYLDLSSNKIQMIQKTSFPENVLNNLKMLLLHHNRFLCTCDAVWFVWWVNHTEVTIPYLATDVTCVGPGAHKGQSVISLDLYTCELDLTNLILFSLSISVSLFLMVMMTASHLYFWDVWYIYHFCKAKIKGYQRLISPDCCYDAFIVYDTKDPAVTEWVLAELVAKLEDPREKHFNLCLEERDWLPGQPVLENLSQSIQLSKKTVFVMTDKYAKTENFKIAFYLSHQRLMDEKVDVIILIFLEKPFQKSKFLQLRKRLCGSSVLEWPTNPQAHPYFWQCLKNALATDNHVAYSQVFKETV
From the text: (§1) CD69 and TNF are biomarkers intended to inform the pharmacodynamic (PD) effect of compound of Formula (I). Whole blood samples from the SAD and MAD cohorts were ex-vivo stimulated with a TLR7/8 agonist to increase levels of CD69 and TNF.

TLR8 = target: T2, TLR8 (Homo sapiens, UniProt Q9NR97); assay: Ex-vivo stimulation of whole blood from SAD and MAD cohorts with a TLR7/8 agonist, monocyte TNF production; format: cell-based
T2 construct: endogenous in cells; host or cells: monocytes in whole blood of healthy human subjects (SAD and MAD cohorts)
T2 sequence (Q9NR97 27-1041): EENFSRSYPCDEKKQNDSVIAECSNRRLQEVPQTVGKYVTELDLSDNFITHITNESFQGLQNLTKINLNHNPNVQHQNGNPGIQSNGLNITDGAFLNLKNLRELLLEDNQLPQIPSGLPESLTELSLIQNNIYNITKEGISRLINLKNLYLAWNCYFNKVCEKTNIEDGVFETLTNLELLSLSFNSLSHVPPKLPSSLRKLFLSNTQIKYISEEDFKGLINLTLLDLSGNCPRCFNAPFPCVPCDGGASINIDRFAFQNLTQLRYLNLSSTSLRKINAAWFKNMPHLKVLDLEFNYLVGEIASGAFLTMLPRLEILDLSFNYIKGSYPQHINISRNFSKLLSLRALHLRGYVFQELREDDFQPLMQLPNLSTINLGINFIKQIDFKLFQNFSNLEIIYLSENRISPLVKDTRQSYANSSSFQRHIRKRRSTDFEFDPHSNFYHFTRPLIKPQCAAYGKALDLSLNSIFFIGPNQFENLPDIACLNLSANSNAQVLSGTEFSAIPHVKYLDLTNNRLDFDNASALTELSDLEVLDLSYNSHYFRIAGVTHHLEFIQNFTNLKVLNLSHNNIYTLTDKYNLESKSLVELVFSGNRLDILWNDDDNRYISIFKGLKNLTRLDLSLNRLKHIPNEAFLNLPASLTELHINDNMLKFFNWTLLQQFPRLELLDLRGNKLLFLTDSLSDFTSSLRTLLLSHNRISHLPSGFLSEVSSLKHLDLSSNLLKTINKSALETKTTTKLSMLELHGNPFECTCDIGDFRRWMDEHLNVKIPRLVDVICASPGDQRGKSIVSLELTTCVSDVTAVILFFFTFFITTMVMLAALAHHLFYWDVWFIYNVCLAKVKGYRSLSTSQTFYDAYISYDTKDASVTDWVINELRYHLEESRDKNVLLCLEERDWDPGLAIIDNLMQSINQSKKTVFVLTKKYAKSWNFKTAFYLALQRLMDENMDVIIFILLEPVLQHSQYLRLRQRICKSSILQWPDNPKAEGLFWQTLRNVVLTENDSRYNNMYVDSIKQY
From the text: as §1

[1] = First-in-human study, pharmacokinetics in healthy volunteers (plasma concentration; SAD, MAD, food effect); format: in vivo; conditions: for increase of exposure (plasma concentration) with dose: healthy volunteers
Protocol: (§2) A first-in-human (FIH) study was conducted to assess the safety and tolerability, pharmacokinetics (PK) and pharmacodynamics (PD) of single and multiple doses of compound of Formula (I) as twice daily (bid) oral administration in healthy volunteers, to support further clinical development of compound of Formula (I) in autoimmune diseases. This study also explored the effect of food intake.
(§3) First-in-human study in healthy volunteers (HVs) included the following: • Part A was a randomized, subject-blinded, placebo-controlled, single ascending dose (SAD) study with 10 cohorts. Each cohort received in an ascending order a 1 mg, 3 mg, 10 mg, 20 mg, 40 mg, 80 mg, 160 mg, 320 mg, 640 mg or 1000 mg single dose of compound of Formula (I). • Part B was a randomized, subject-blinded, placebo-controlled, multiple ascending dose (MAD) study with 5 cohorts. Each cohort received in an ascending order a 25 mg, 50 mg, 100 mg, 200 mg or 400 mg dose of compound of Formula (I) b.i.d. for 14 days. • Part C was a randomized, open-label, two-sequence, two-period crossover study with a 200 mg dose of compound of Formula (I) administered each underfed or fasted condition, for the food effect evaluation.

[2] = First-in-human study, safety and tolerability in healthy volunteers; format: in vivo; conditions: healthy subjects
Protocol: as §2, §3

[3] = 200 mg b.i.d. for 14 days, FIH study
[4] = ex-vivo stimulated whole blood, across the dose range (SAD and MAD)

Cc1cc(N2CCc3c(c(C)nn3CC34CCC(NC(=O)[C@@H]5COCCN5)(CC3)CC4)C2)c2cnn(C)c2n1 [compound of Formula (I), (S)-N-(4-((5-(1,6-dimethyl-1H-pyrazolo[3,4-b]pyridin-4-yl)-3-methyl-4,5,6,7-tetrahydro-1H-pyrazolo[4,3-c]pyridin-1-yl)methyl)bicyclo[2.2.2]octan-1-yl)morpholine-3-carboxamide]
selectivity for TLR7 and TLR8 over other TLRs and the IL-1 receptor (TLR7 and TLR8): highly selective
TLR7 pathway inhibition (TLR7; [3]): full pathway inhibition
B cell activation (upregulation of CD69) following TLR7 stimulation (TLR7; [4]): inhibited B cell activation
TLR8 pathway inhibition (TLR8; [3]): full pathway inhibition
activation of human monocytes to produce TNF following TLR8 stimulation (TLR8; [4]): inhibited activation of human monocytes to produce TNF
Cmax timing under fed condition ([1]; 200 mg dose, fed condition, FIG. 3): slightly delayed Cmax
food effect on exposure ([1]; 200 mg dose, fed vs fasted crossover, FIG. 3): No relevant food effect
increase of exposure (plasma concentration) with dose ([1]; multiple ascending dose b.i.d. for 14 days, FIG. 2): dose-proportional at steady state for the lower doses
half-life ([1]; plasma, oral, human, FIH study, maximum value, read-out: terminal half-life): ≤ 14.4 h
increase of exposure (plasma concentration) with dose ([1]; single ascending dose, oral, FIG. 1): dose-proportional for the higher doses
safety and tolerability ([2]; multiple administrations of up to 400 mg b.i.d. for 14 days): safe and well tolerated; also recorded: safe and well-tolerated
safety and tolerability ([2]; single oral administration of up to 1000 mg): safe and well tolerated; also recorded: safe and well-tolerated
